Experimental data reported in paper PMC4949444 (Scientific Reports, 2016).
pKi: −log10 of the molar value.

What was measured:
STHdh^Q7/Q7 = experiment: Serum deprivation survival of STHdh Q7/Q7 striatal neuroblasts (MTT); type: cell-based, mouse; details: STHdh Q7/Q7, 72 h
Method: (§1) Figure 4 In vitro neuroprotective action of VCE-003.2. (a) HiB5 cells were treated with quinolinic acid (QA; 2,5 mM) in the presence or the absence of VCE-003.2 (50 and 250 nM) and cell viability was determined after 24 h by the MTT assay. (b) QA-induced apoptosis measured by cleaved caspase 3 immunostaining (upper panel) of differentiating HiB5 cells was quantified in the presence or absence of VCE-003.2 (250 nM). Cell counts were referred to total cell nuclei counterstained with DAPI and c-caspase3^+ cell quantification is shown in the lower panel. […]. (d) Aggregation of mut-Htt was assessed by fluorescence microscopy in immortalized striatal STHdh transfected cells with a CFP-tagged expression vector of mutant huntingtin (mut-Htt) and counterstained with fluorescent phalloidin (upper panel). […]. Results are representative of three independent experiments. Values are expressed as means ± S. D. *p < 0.05 and ***p < 0.001 vs. Vehicle; ^#p < 0.05 ^##p < 0.01 vs. QA. […]
(§2) The HiB5 hippocampal progenitor cell line (kindly provided by Prof. Z. Kokaia, Lund Stem Cell Center, Sweden) was grown as described[46] in DMEM supplemented with 2 mM glutamine, 1% penicillin/streptomycin and 10% (v/v) fetal calf serum (FCS; Lonza, Switzerland). […] Cell viability was determined after 24 h using the 3-[4,5-dimethylthiazol-2-yl]-2,5-diphenyltetrazolium bromide (MTT) tesresults int. […]

[1] = test system: ERK, Akt and mTORC1 signaling pathways; experiment: ERK, Akt and mTORC1 signalling in HiB5 cells (western blot); type: cell-based
Method: Figure 3 Prosurvival effect of VCE-003.2 in hippocampal neural progenitor HiB5 cells. (a,b) HiB5 cells in proliferative and differentiation conditions respectively were incubated with increasing concentrations of VCE-003.2 and cell viability was assessed using the MTT test after 48 h. (c) Cell viability and ERK1/2 phosphorylation status (activation) was determined in VCE-003.2-treated cells in the absence or presence of GW9662 (5 μM). (d) VCE-003.2 time-dependent regulation of the ERK, Akt and mTORC1 signaling pathways were determined by incubation with anti-phospho-ERK, phospho-Akt and phospho-S6 antibodies. Loading control was performed with α-tubulin antibody. Representative western blots and densitometry quantification of three independent experiments are shown. Values are expressed as means ± S.D. *p < 0.05; **p < 0.01 vs. Vehicle; ^#p < 0.05 vs. VCE-003.2.
Cleared cell extracts were subjected to SDS-PAGE, transferred to polyvinylidene difluoride membranes, and incubated with the correspondent primary antibodies against phospho-ERK1/2 (Thr202/Tyr204; Cell Signaling Technology, Danvers, MA, USA), phospho-S6 ribosomal protein (Ser235/236) (Cell Signaling Technology), phospho-Akt (Ser473) (Cell Signaling Technology) and α-tubulin (Sigma-Aldrich) overnight at 4 °C. After washing membranes, horseradish peroxidase-conjugated secondary antibody was added and detected by chemiluminescence system. Loading controls were performed with an anti-α-tubulin antibody. Densitometric quantification of the luminograms was performed using a GS-700 Imaging densitometer (Bio-Rad, Hercules, CA) and Image J software.

N2a cells = experiment: Reactive oxygen species production in N2a cells (CM-H2DCFDA); type: cell-based; details: 2 hours
Method: Determination of ROS: N2a cells were seeded at 25x 10^3 cells/ml in 96-well plates and incubated with 0.25 ȝM 5-(and-6 )-chloro meth yl-2ƍ,7ƍ-dichlorodihydrofluorescein diacetate acet yl ester (C M-H 2 DCFDA) for 20 minutes at 37°C. Then, the cells were treated with either VCE-003 or VCE-003.2 for 2 hours. Cells exposed to pro-oxidant tert-Butyl h ydroperoxide (TBHP) were used as positive control. H 2 DCFDA oxidation was detected using an Incuc yteTM Live-Cell Imaging S ystem (Hertfordshire, UK).
Supplementary Figure S1. Non-elect rophilic activity for VCE-003.2. (a) Reactive ox ygen species production. N2a cells were stained with CM-H2DCFDA and treated with VCE-003 or VCE-003.2 for 2 hours. Then, reactive ox ygen sp ecies were measured b y In cu c yt e TM Liv e-Cell Im agin g S ystem. Results are ex pressed as m ean of t otal integrated intensity (ROS positive cells) ± S.D. (b) Effect on Nrf2 transcriptional activity.
VCE-003 treatment vers us Vehicle treated cells.

PPARγ = type: cell-based; details: HEK293, GAL4-PPARγ + GAL4-luc, 6 hours
Method: The indicated concentrations were tested and results were plotted to obtain the polynomial trend on a logarithmic range. IC50 values are indicated within the graph. […] HEK293 cells were co-transfected with GAL4-PPARγ and GAL4-luc and incubated with the indicated compound concentrations for 6 hours prior to luciferase activity determination. Results are expressed as the fold induction ± S.D. relative to untreated control. […] All experiments are shown as mean ± S.D. from at least three independent experiments. Statistics: *^,#,†p < 0.05, **^,##,††p < 0.01 and ***^,###p < 0.001. […] To study PPARγ transcriptional activity HEK293 cells were seeded in 24-well plates and transiently co-transfected with the expression vector GAL4-PPARγ and the luciferase reporter vector GAL4-luc using Roti-Fect (Carl Roth, Karlsruhe, Germany) following the manufacturer’s instructions. To correct for transfection efficacy, 100 ng Renilla luciferase (pRL-CMV) was also cotransfected. After stimulation, the luciferase activities were quantified using Dual-Luciferase Assay (Promega, Madison, WI, USA).

CB1 receptor = molecular target: T1, CB1 receptor (Homo sapiens, UniProt P21554); experiment: CB1 receptor binding, [3H]CP55940 competition; details: data not shown; read-out: predicted Ki, CB1 receptor
T1 construct: purchased Perkin-Elmer Life and Analytical Sciences, Boston, MA; host or cells: HEK293 EBNA cells stably expressing the receptor
T1 sequence (P21554 whole entry): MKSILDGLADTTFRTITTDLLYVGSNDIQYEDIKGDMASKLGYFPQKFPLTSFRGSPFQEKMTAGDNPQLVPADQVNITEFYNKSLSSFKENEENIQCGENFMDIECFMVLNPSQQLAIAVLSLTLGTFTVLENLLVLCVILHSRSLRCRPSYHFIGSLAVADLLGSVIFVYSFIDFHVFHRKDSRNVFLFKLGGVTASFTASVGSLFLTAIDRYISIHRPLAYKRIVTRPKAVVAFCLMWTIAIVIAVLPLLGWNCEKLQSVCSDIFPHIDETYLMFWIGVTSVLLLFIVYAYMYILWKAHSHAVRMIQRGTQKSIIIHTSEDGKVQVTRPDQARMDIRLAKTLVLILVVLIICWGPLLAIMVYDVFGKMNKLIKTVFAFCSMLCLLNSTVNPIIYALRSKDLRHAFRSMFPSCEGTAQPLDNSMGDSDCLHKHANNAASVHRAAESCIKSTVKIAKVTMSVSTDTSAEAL
Method: CB1 and CB2 receptor binding affinities were determined by competition studies using [^3H]CP55940 as radioligand and commercial membrane preparations of HEK293 EBNA cells stably expressing the respective receptor type (Perkin-Elmer Life and Analytical Sciences, Boston, MA), following a procedure previously described.

[2] = test system: mutant huntingtin (mut-Htt) aggregates in striatal STHdh cells; experiment: Mutant huntingtin aggregation in transfected STHdh cells; type: cell-based, mouse; details: STHdh cells transfected with exon 1 mut-htt, 94 polyglutamine repeats
Method: as §1, §2

HiB5 cells = experiment: Quinolinic acid-induced cell death and apoptosis in HiB5 cells; type: cell-based
Method: as §1, §2

## CCCCCC1=C(NCC)C(=O)C(C/C=C(\C)CCC=C(C)C)=C(O)C1=O [VCE-003.2]
STHdh^Q7/Q7
  neuronal viability after serum deprivation: improved
[1]
  ERK phosphorylation: induction of extracellular signal-regulated kinase (ERK) phosphorylation
[1]; + GW9662 5 μM
  ERK phosphorylation in presence of GW9662: abolished in the presence of GW9662
[1]; phospho-Akt
  activation of Akt, time course: activated at a higher extent and shortly after VCE-003.2 incubation and lasted until 60 min after incubation
[1]; phospho-ERK and phospho-S6
  activation of ERK and mTORC1 signaling, time course: transient activation of ERK and mTORC1 signaling pathways between 15 and 30 min after stimulation
N2a cells
  induction of reactive oxygen species (ROS): none of these bioactivities were induced
PPARγ
  PPARγ transcriptional activity (transactivation): induced PPARγ transactivation in a concentration-dependent manner
CB1 receptor
  pKi: < 4.40
[2]
  cells with mut-Htt aggregates: reduced the number of cells with aggregates
HiB5 cells; HiB5, QA 2,5 mM, VCE-003.2 50 and 250 nM, 24 h MTT
  QA-induced NP cell death: fully prevented
HiB5 cells; differentiating HiB5, VCE-003.2 250 nM
  QA-induced apoptosis (cleaved caspase 3): significantly inhibited
